{
  "source": "patent US6270797A",
  "about": "(USV Limited, priority 2000, dated 2001)",
  "origin": "cited, not measured here",
  "key": {"[1]": {"system": "beta cells of pancreatic-islet tissue"}},
  "data": [
    {"smiles": "Cc1cnc(C(=O)NCCc2ccc(S(=O)(=O)NC(=O)NC3CCCCC3)cc2)cn1", "note": "[Glipizide, 1-cyclohexyl-3-[[p-[2-(5-methylpyrazinecarboxamido)ethyl]phenyl]sulfonyl]urea]", "values": [
      {"measurement": "number of insulin receptors", "setting": "insulin receptors", "value": "may increase the number of insulin receptors"},
      {"measurement": "insulin secretion from the beta cells of pancreatic-islet tissue", "setting": "[1]", "value": "stimulates insulin secretion"}
    ]}
  ]
}
